{"source": "patent US12642797B2", "about": "“Coated granule, solid dispersion, and preparation containing vortioxetine hydrobromide for oral taste masking” (Seasons Biotechnology (Taizhou) Co., Ltd., priority 2019, dated 2026)", "key": {"[1]": {"assay": "Solubility in sodium acetate medium pH 6.8 simulating the oral environment (USP method)", "format": "physicochemical", "settings": "sodium acetate medium pH 6.8, USP method; hemihydrobromide"}, "tongue": {"test_system": "tongue", "assay": "Comparative Example 1: comparison of taste of different vortioxetine salts (10 subjects, 30 attempts)", "settings": "converted to the same amount of C18H22N2S", "experimental": "The vortioxetine lactate salt, vortioxetine hydrobromide and vortioxetine hemihydrobromide equivalent to 5 mg of vortioxetine respectively over 100 mesh powders were put directly in front of the upper part of the tongue for one minute. There were 10 subjects in each salt-type group, and each subject randomly tried each salt-type 3 times. After trying one salt-type taste, rinsed your mouth, and try another salt-type after there was no irritation. After trying the taste, record the bitterness level and tongue irritation, spit it out a few seconds later, rinse your mouth, record the time for the irritation to subside, eat 1-1.5 hours later, and record the irritation again."}, "oral cavity and tongue": {"test_system": "oral cavity and tongue", "assay": "Taste and irritation test by subjects (self-made sample vs reference sample)", "format": "in vivo, human", "settings": "for Instantaneous irritation: 0-1 minute; for Instantaneous irritation / Delayed irritation: powder equivalent to 20 mg of vortioxetine tasted, hemihydrobromide", "experimental": "In the examples, the taste masking effects of test samples were evaluated by the subject's perception of the bitterness and irritation of the oral cavity and tongue. The Taste and Irritation Classification Tested by the Subjects: [table]"}, "[2]": {"settings": "Subject 1, listed as Reference sample (1a)"}, "[3]": {"settings": "Subject 1, listed as Reference sample (1e)"}, "[4]": {"settings": "Subject 1, listed as Reference sample (2a)"}, "[5]": {"settings": "Subject 1, listed as Reference sample (2c)"}, "[6]": {"settings": "Subject 1, listed as Reference sample (3a)"}, "[7]": {"settings": "Subject 1, listed as Reference sample (3b)"}, "[8]": {"settings": "Subject 1, listed as Reference sample (3c)"}, "[9]": {"settings": "Subject 1, listed as Reference sample (4a)"}, "[10]": {"settings": "Subject 1, listed as Reference sample (1d)"}, "[11]": {"settings": "Subject 1, listed as Reference sample (2d)"}, "[12]": {"settings": "Subject 2, listed as Reference sample (1a)"}, "[13]": {"settings": "Subject 2, listed as Reference sample (1e)"}, "[14]": {"settings": "Subject 2, listed as Reference sample (2a)"}, "[15]": {"settings": "Subject 2, listed as Reference sample (2c)"}, "[16]": {"settings": "Subject 2, listed as Reference sample (3a)"}, "[17]": {"settings": "Subject 2, listed as Reference sample (3b)"}, "[18]": {"settings": "Subject 2, listed as Reference sample (3c)"}, "[19]": {"settings": "Subject 2, listed as Reference sample (4a)"}, "[20]": {"settings": "Subject 2, listed as Reference sample (1d)"}, "[21]": {"settings": "Subject 2, listed as Reference sample (2d)"}, "[22]": {"settings": "Subject 3, listed as Reference sample (1a)"}, "[23]": {"settings": "Subject 3, listed as Reference sample (1e)"}, "[24]": {"settings": "Subject 3, listed as Reference sample (2a)"}, "[25]": {"settings": "Subject 3, listed as Reference sample (2c)"}, "[26]": {"settings": "Subject 3, listed as Reference sample (3a)"}, "[27]": {"settings": "Subject 3, listed as Reference sample (3b)"}, "[28]": {"settings": "Subject 3, listed as Reference sample (3c)"}, "[29]": {"settings": "Subject 3, listed as Reference sample (4a)"}, "[30]": {"settings": "Subject 3, listed as Reference sample (1d)"}, "[31]": {"settings": "Subject 3, listed as Reference sample (2d)"}}, "note": "Counter-ions that a name gives are not always drawn.", "data": [{"smiles": "Cc1ccc(Sc2ccccc2N2CCNCC2)c(C)c1", "note": "[vortioxetine hemihydrobromide]", "values": [{"measurement": "solubility", "setting": "[1]", "result": 140, "unit": "µg/mL"}, {"measurement": "Irritation compared with vortioxetine hydrobromide, in words", "setting": "tongue", "result": "significantly less irritating"}, {"measurement": "Irritation, overall comparison in words", "setting": "oral cavity and tongue; 5 subjects, treated powder vs untreated 100-mesh salt powder, each equivalent to 20 mg vortioxetine", "result": "obvious and could hardly be tolerated"}, {"measurement": "Instantaneous irritation", "setting": "oral cavity and tongue; [2]", "result": "++ (+ + Irritating, tolerable)"}, {"measurement": "Instantaneous irritation", "setting": "oral cavity and tongue; [3]", "result": "++ (+ + Irritating, tolerable)"}, {"measurement": "Instantaneous irritation", "setting": "oral cavity and tongue; [4]", "result": "+++ (+ + + Strong irritation, intolerable)"}, {"measurement": "Instantaneous irritation", "setting": "oral cavity and tongue; [5]", "result": "+++ (+ + + Strong irritation, intolerable)"}, {"measurement": "Instantaneous irritation", "setting": "oral cavity and tongue; [6]", "result": "+++ (+ + + Strong irritation, intolerable)"}, {"measurement": "Instantaneous irritation", "setting": "oral cavity and tongue; [7]", "result": "+++ (+ + + Strong irritation, intolerable)"}, {"measurement": "Instantaneous irritation", "setting": "oral cavity and tongue; [8]", "result": "+++ (+ + + Strong irritation, intolerable)"}, {"measurement": "Instantaneous irritation", "setting": "oral cavity and tongue; [9]", "result": "+++ (+ + + Strong irritation, intolerable)"}, {"measurement": "Instantaneous irritation", "setting": "oral cavity and tongue; [10]", "result": "++ (+ + Irritating, tolerable)"}, {"measurement": "Instantaneous irritation", "setting": "oral cavity and tongue; [11]", "result": "++ (+ + Irritating, tolerable)"}, {"measurement": "Delayed irritation", "setting": "oral cavity and tongue; [2]", "result": ">30", "unit": "min"}, {"measurement": "Delayed irritation", "setting": "oral cavity and tongue; [3]", "result": "15 to 30", "unit": "min"}, {"measurement": "Delayed irritation", "setting": "oral cavity and tongue; [4]", "result": ">30", "unit": "min"}, {"measurement": "Delayed irritation", "setting": "oral cavity and tongue; [5]", "result": ">30", "unit": "min"}, {"measurement": "Delayed irritation", "setting": "oral cavity and tongue; [6]", "result": ">30", "unit": "min"}, {"measurement": "Delayed irritation", "setting": "oral cavity and tongue; [7]", "result": ">30", "unit": "min"}, {"measurement": "Delayed irritation", "setting": "oral cavity and tongue; [8]", "result": ">30", "unit": "min"}, {"measurement": "Delayed irritation", "setting": "oral cavity and tongue; [9]", "result": ">30", "unit": "min"}, {"measurement": "Delayed irritation", "setting": "oral cavity and tongue; Subject 1, listed as Reference sample (5)", "result": "15 to 30", "unit": "min"}, {"measurement": "Delayed irritation", "setting": "oral cavity and tongue; Subject 1, listed as Reference sample (6)", "result": "15 to 30", "unit": "min"}, {"measurement": "Delayed irritation", "setting": "oral cavity and tongue; Subject 1, listed as Reference sample (7a)", "result": ">30", "unit": "min"}, {"measurement": "Delayed irritation", "setting": "oral cavity and tongue; Subject 1, listed as Reference sample (8a)", "result": "15 to 30", "unit": "min"}, {"measurement": "Delayed irritation", "setting": "oral cavity and tongue; Subject 1, listed as Reference sample (8b)", "result": "15 to 30", "unit": "min"}, {"measurement": "Delayed irritation", "setting": "oral cavity and tongue; [10]", "result": "15 to 30", "unit": "min"}, {"measurement": "Delayed irritation", "setting": "oral cavity and tongue; [11]", "result": ">30", "unit": "min"}, {"measurement": "Instantaneous irritation", "setting": "oral cavity and tongue; [12]", "result": "+++ (+ + + Strong irritation, intolerable)"}, {"measurement": "Instantaneous irritation", "setting": "oral cavity and tongue; [13]", "result": "+++ (+ + + Strong irritation, intolerable)"}, {"measurement": "Instantaneous irritation", "setting": "oral cavity and tongue; [14]", "result": "++ (+ + Irritating, tolerable)"}, {"measurement": "Instantaneous irritation", "setting": "oral cavity and tongue; [15]", "result": "++ (+ + Irritating, tolerable)"}, {"measurement": "Instantaneous irritation", "setting": "oral cavity and tongue; [16]", "result": "++ (+ + Irritating, tolerable)"}, {"measurement": "Instantaneous irritation", "setting": "oral cavity and tongue; [17]", "result": "++ (+ + Irritating, tolerable)"}, {"measurement": "Instantaneous irritation", "setting": "oral cavity and tongue; [18]", "result": "++ (+ + Irritating, tolerable)"}, {"measurement": "Instantaneous irritation", "setting": "oral cavity and tongue; [19]", "result": "++ (+ + Irritating, tolerable)"}, {"measurement": "Instantaneous irritation", "setting": "oral cavity and tongue; [20]", "result": "+++ (+ + + Strong irritation, intolerable)"}, {"measurement": "Instantaneous irritation", "setting": "oral cavity and tongue; [21]", "result": "++ (+ + Irritating, tolerable)"}, {"measurement": "Delayed irritation", "setting": "oral cavity and tongue; [12]", "result": ">30", "unit": "min"}, {"measurement": "Delayed irritation", "setting": "oral cavity and tongue; [13]", "result": ">30", "unit": "min"}, {"measurement": "Delayed irritation", "setting": "oral cavity and tongue; [14]", "result": "15 to 30", "unit": "min"}, {"measurement": "Delayed irritation", "setting": "oral cavity and tongue; [15]", "result": "15 to 30", "unit": "min"}, {"measurement": "Delayed irritation", "setting": "oral cavity and tongue; [16]", "result": "15 to 30", "unit": "min"}, {"measurement": "Delayed irritation", "setting": "oral cavity and tongue; [17]", "result": "15 to 30", "unit": "min"}, {"measurement": "Delayed irritation", "setting": "oral cavity and tongue; [18]", "result": "15 to 30", "unit": "min"}, {"measurement": "Delayed irritation", "setting": "oral cavity and tongue; [19]", "result": "15 to 30", "unit": "min"}, {"measurement": "Delayed irritation", "setting": "oral cavity and tongue; Subject 2, listed as Reference sample (5)", "result": ">30", "unit": "min"}, {"measurement": "Delayed irritation", "setting": "oral cavity and tongue; Subject 2, listed as Reference sample (6)", "result": ">30", "unit": "min"}, {"measurement": "Delayed irritation", "setting": "oral cavity and tongue; Subject 2, listed as Reference sample (7a)", "result": "15 to 30", "unit": "min"}, {"measurement": "Delayed irritation", "setting": "oral cavity and tongue; Subject 2, listed as Reference sample (8a)", "result": "15 to 30", "unit": "min"}, {"measurement": "Delayed irritation", "setting": "oral cavity and tongue; Subject 2, listed as Reference sample (8b)", "result": "15 to 30", "unit": "min"}, {"measurement": "Delayed irritation", "setting": "oral cavity and tongue; [20]", "result": ">30", "unit": "min"}, {"measurement": "Delayed irritation", "setting": "oral cavity and tongue; [21]", "result": "15 to 30", "unit": "min"}, {"measurement": "Instantaneous irritation", "setting": "oral cavity and tongue; [22]", "result": "+++ (+ + + Strong irritation, intolerable)"}, {"measurement": "Instantaneous irritation", "setting": "oral cavity and tongue; [23]", "result": "+++ (+ + + Strong irritation, intolerable)"}, {"measurement": "Instantaneous irritation", "setting": "oral cavity and tongue; [24]", "result": "+++ (+ + + Strong irritation, intolerable)"}, {"measurement": "Instantaneous irritation", "setting": "oral cavity and tongue; [25]", "result": "+++ (+ + + Strong irritation, intolerable)"}, {"measurement": "Instantaneous irritation", "setting": "oral cavity and tongue; [26]", "result": "++ (+ + Irritating, tolerable)"}, {"measurement": "Instantaneous irritation", "setting": "oral cavity and tongue; [27]", "result": "++ (+ + Irritating, tolerable)"}, {"measurement": "Instantaneous irritation", "setting": "oral cavity and tongue; [28]", "result": "++ (+ + Irritating, tolerable)"}, {"measurement": "Instantaneous irritation", "setting": "oral cavity and tongue; [29]", "result": "+++ (+ + + Strong irritation, intolerable)"}, {"measurement": "Instantaneous irritation", "setting": "oral cavity and tongue; [30]", "result": "+++ (+ + + Strong irritation, intolerable)"}, {"measurement": "Instantaneous irritation", "setting": "oral cavity and tongue; [31]", "result": "+++ (+ + + Strong irritation, intolerable)"}, {"measurement": "Delayed irritation", "setting": "oral cavity and tongue; [22]", "result": ">30", "unit": "min"}, {"measurement": "Delayed irritation", "setting": "oral cavity and tongue; [23]", "result": ">30", "unit": "min"}, {"measurement": "Delayed irritation", "setting": "oral cavity and tongue; [24]", "result": "1 to 15", "unit": "min"}, {"measurement": "Delayed irritation", "setting": "oral cavity and tongue; [25]", "result": "1 to 15", "unit": "min"}, {"measurement": "Delayed irritation", "setting": "oral cavity and tongue; [26]", "result": ">30", "unit": "min"}, {"measurement": "Delayed irritation", "setting": "oral cavity and tongue; [27]", "result": ">30", "unit": "min"}, {"measurement": "Delayed irritation", "setting": "oral cavity and tongue; [28]", "result": ">30", "unit": "min"}, {"measurement": "Delayed irritation", "setting": "oral cavity and tongue; [29]", "result": ">30", "unit": "min"}, {"measurement": "Delayed irritation", "setting": "oral cavity and tongue; Subject 3, listed as Reference sample (5)", "result": "15 to 30", "unit": "min"}, {"measurement": "Delayed irritation", "setting": "oral cavity and tongue; Subject 3, listed as Reference sample (6)", "result": "15 to 30", "unit": "min"}, {"measurement": "Delayed irritation", "setting": "oral cavity and tongue; Subject 3, listed as Reference sample (7a)", "result": "15 to 30", "unit": "min"}, {"measurement": "Delayed irritation", "setting": "oral cavity and tongue; Subject 3, listed as Reference sample (8a)", "result": ">30", "unit": "min"}, {"measurement": "Delayed irritation", "setting": "oral cavity and tongue; Subject 3, listed as Reference sample (8b)", "result": ">30", "unit": "min"}, {"measurement": "Delayed irritation", "setting": "oral cavity and tongue; [30]", "result": ">30", "unit": "min"}, {"measurement": "Delayed irritation", "setting": "oral cavity and tongue; [31]", "result": "1 to 15", "unit": "min"}]}]}
